Results: PMC6105164 (Cancer Chemotherapy and Pharmacology, 2018)
“Also recorded” adds a separate entry of the source.

Tested on: relapsed/refractory solid tumors
Assay: Exploratory evaluation of efficacy (RECIST)
Format: in vivo, human
Settings: for Number of cycles completed, Median / Number of cycles completed, Range: completed = ≥ 60% of planned treatment
Excerpt: Treatment was immediately terminated at the patient’s request when DLT occurred; the study physician decided that continuation was inappropriate because of AEs; or if the tumor was classified as progressive disease (PD) according to the Response Evaluation Criteria in Solid Tumor (RECIST) Guideline. In cases of DLT, patients were allowed to continue the regimen with dose adjustments upon providing written agreement. At the end of the regimen, patients were allowed to repeat the same regimen if all of the following criteria were met: no DLT occurred; the tumor was not determined as PD; the study physicians agreed; and the patient provided written informed consent. […] Diagnostic imaging using computed tomography, magnetic resonance imaging (MRI), fluorodeoxyglucose-positron emission tomography (PET), and/or bone scintigraphy was performed depending on the tumors and clinical symptoms on day 22 of first and repeated regimens or at discontinuation. Specific tumor markers (e.g., carcinoembryonic antigen for colorectal cancer and prostate-specific antigen for prostate cancer) were measured on day 22 of first and repeated regimens or at discontinuation. Based on the information obtained, the efficacy was scored in accordance with the RECIST guideline.

[1] = 800 mg twice-daily, for one patient days until withdrawal were counted
[2] = 800 mg twice-daily, two patients not evaluated
[3] = patients with KRAS mutations (4 patients)

In the case of `CC(C)=CCC/C(C)=C/CC/C(C)=C/CSc1ccccc1C(=O)O` [Salirasib, S-trans, trans-farnesylthiosalicylic acid], the “Disease control rate (DCR): CR + PR + SD” value (100 mg twice-daily) is reported as 1 (33.3) N (%), the “Objective response rate (ORR): CR + PR” value (100 mg twice-daily) is reported as 0 (0.0) N (%) and the “Progression-free survival, Median” value (100 mg twice-daily) is reported as 22 days. For the same compound, the “Progression-free survival, Range” value (100 mg twice-daily) was 16 to 53 days, the “Response rate: Complete response (CR)” value (100 mg twice-daily) was 0 (0.0) N (%) and the “Response rate: Partial response (PR)” value (100 mg twice-daily) was 0 (0.0) N (%). For the same compound, the “Response rate: Progressive disease (PD)” value (100 mg twice-daily) was 2 (66.7) N (%), the “Number of cycles completed, Median” value (100 mg twice-daily) was 1 and the “Number of cycles completed, Range” value (100 mg twice-daily) was 1–2. The “Disease control rate (DCR): CR + PR + SD” value (200 mg twice-daily) was 3 (100.0) N (%), the “Objective response rate (ORR): CR + PR” value (200 mg twice-daily) was 0 (0.0) N (%) and the “Progression-free survival, Median” value (200 mg twice-daily) was 213 days. The “Progression-free survival, Range” value (200 mg twice-daily) was 57 to 373 days, the “Response rate: Complete response (CR)” value (200 mg twice-daily) was 0 (0.0) N (%) and the “Response rate: Partial response (PR)” value (200 mg twice-daily) was 0 (0.0) N (%). The “Response rate: Progressive disease (PD)” value (200 mg twice-daily) was 0 (0.0) N (%), the “Number of cycles completed, Median” value (200 mg twice-daily) was 7 and the “Number of cycles completed, Range” value (200 mg twice-daily) was 2–13. For the same compound, the “Disease control rate (DCR): CR + PR + SD” value (400 mg twice-daily) was 2 (66.7) N (%), the “Objective response rate (ORR): CR + PR” value (400 mg twice-daily) was 0 (0.0) N (%) and the “Progression-free survival, Median” value (400 mg twice-daily) was 56 days. The “Progression-free survival, Range” value (400 mg twice-daily) was 22 to 91 days, the “Response rate: Complete response (CR)” value (400 mg twice-daily) was 0 (0.0) N (%) and the “Response rate: Partial response (PR)” value (400 mg twice-daily) was 0 (0.0) N (%). The “Response rate: Progressive disease (PD)” value (400 mg twice-daily) was 1 (33.3) N (%), the “Number of cycles completed, Median” value (400 mg twice-daily) was 2 and the “Number of cycles completed, Range” value (400 mg twice-daily) was 1–3. For the same compound, the “Disease control rate (DCR): CR + PR + SD” value (600 mg twice-daily) was 2 (66.7) N (%), the “Objective response rate (ORR): CR + PR” value (600 mg twice-daily) was 0 (0.0) N (%) and the “Progression-free survival, Median” value (600 mg twice-daily) was 135 days. The “Progression-free survival, Range” value (600 mg twice-daily) was 79 to 319 days, the “Response rate: Complete response (CR)” value (600 mg twice-daily) was 0 (0.0) N (%) and the “Response rate: Partial response (PR)” value (600 mg twice-daily) was 0 (0.0) N (%). The “Response rate: Progressive disease (PD)” value (600 mg twice-daily) was 1 (33.3) N (%), the “Number of cycles completed, Median” value (600 mg twice-daily) was 5 and the “Number of cycles completed, Range” value (600 mg twice-daily) was 3–11. For the same compound, the “Number of cycles completed, Median” value (800 mg twice-daily) was 1, the “Number of cycles completed, Range” value (800 mg twice-daily) was 1–11 and the “Progression-free survival, Median” value [1] was 29 days. For the same compound, the “Progression-free survival, Range” value [1] was 22 to 307 days, the “Disease control rate (DCR): CR + PR + SD” value [2] was 1 (16.7) N (%) and the “Objective response rate (ORR): CR + PR” value [2] was 0 (0.0) N (%). For the same compound, the “Response rate: Complete response (CR)” value [2] was 0 (0.0) N (%), the “Response rate: Partial response (PR)” value [2] was 0 (0.0) N (%) and the “Response rate: Progressive disease (PD)” value [2] was 3 (50.0) N (%). For the same compound, the “Disease control rate (DCR): CR + PR + SD” value (1000 mg twice-daily) was 1 (33.3) N (%), the “Objective response rate (ORR): CR + PR” value (1000 mg twice-daily) was 0 (0.0) N (%) and the “Progression-free survival, Median” value (1000 mg twice-daily) was 22 days. For the same compound, the “Progression-free survival, Range” value (1000 mg twice-daily) was 22 to 91 days, the “Response rate: Complete response (CR)” value (1000 mg twice-daily) was 0 (0.0) N (%) and the “Response rate: Partial response (PR)” value (1000 mg twice-daily) was 0 (0.0) N (%). For the same compound, the “Response rate: Progressive disease (PD)” value (1000 mg twice-daily) was 2 (66.7) N (%), the “Number of cycles completed, Median” value (1000 mg twice-daily) was 1 and the “Number of cycles completed, Range” value (1000 mg twice-daily) was 1–3. The “Disease control rate (DCR): CR + PR + SD” value (Total, all dose groups) was 10 (47.6) N (%), the “Objective response rate (ORR): CR + PR” value (Total, all dose groups) was 0 (0.0) N (%) and the “Progression-free survival, Median” value (Total, all dose groups) was 53 days. For the same compound, the “Progression-free survival, Range” value (Total, all dose groups) was 16 to 373 days, the “Response rate: Complete response (CR)” value (Total, all dose groups) was 0 (0.0) N (%) and the “Response rate: Partial response (PR)” value (Total, all dose groups) was 0 (0.0) N (%). For the same compound, the “Response rate: Progressive disease (PD)” value (Total, all dose groups) was 9 (42.9) N (%), the “Number of cycles completed, Median” value (Total, all dose groups) was 2 and the “Number of cycles completed, Range” value (Total, all dose groups) was 1–13. The “complete response (CR) or partial response (PR), in words” value (all patients, during the trial) was “Neither complete response (CR) nor partial response (PR) was found; also recorded: no patients showed CR or PR”, the “patients who repeated the regimen” value (of 21 patients) was 11 patients and the “Progression-free survival, Range” value [3] was 79 to 373 days. The median progression-free survival [3] was 227 days, the “number of cycles, median” value [3] was 8 cycles and the “number of cycles, range” value [3] was 3–13 cycles.
